Results as given in patent US10618903B2, “Heteroaryl substituted aminopyridine compounds” (BRISTOL-MYERS SQUIBB COMPANY, priority 2015, dated 2020).

molecular target: IRAK4 (Homo sapiens (Human), UniProt Q9NWZ3); test: IRAK4 Inhibition Assay; assay type: biochemical; details: ATP 500 μM; IRAK4 0.6 nM
Experimental: The assays were performed in U-bottom 384-well plates. The final assay volume was 30 μL prepared from 15 μL additions of enzyme and substrates (fluoresceinated peptide and ATP) and test compounds in assay buffer (20 mM HEPES pH 7.2, 10 mM MgCl2, 0.015% Brij 35 and 4 mM DTT). The reaction was initiated by the combination of IRAK4 with substrates and test compounds. The reaction mixture was incubated at room temperature for 60 min. and terminated by adding 45 μL of 35 mM EDTA to each sample. The reaction mixture was analyzed on the Caliper LABCHIP® 3000 (Caliper, Hopkinton, Mass.) by electrophoretic separation of the fluorescent substrate and phosphorylated product. Inhibition data were calculated by comparison to no enzyme control reactions for 100% inhibition and vehicle-only reactions for 0% inhibition. The final concentrations of reagents in the assays are ATP, 500 μM; FL-IPTSPITTTYFFFKKK peptide 1.5 μM; IRAK4, 0.6 nM; and DMSO, 1.6%.

IRAK4, sequence (Q9NWZ3 whole entry): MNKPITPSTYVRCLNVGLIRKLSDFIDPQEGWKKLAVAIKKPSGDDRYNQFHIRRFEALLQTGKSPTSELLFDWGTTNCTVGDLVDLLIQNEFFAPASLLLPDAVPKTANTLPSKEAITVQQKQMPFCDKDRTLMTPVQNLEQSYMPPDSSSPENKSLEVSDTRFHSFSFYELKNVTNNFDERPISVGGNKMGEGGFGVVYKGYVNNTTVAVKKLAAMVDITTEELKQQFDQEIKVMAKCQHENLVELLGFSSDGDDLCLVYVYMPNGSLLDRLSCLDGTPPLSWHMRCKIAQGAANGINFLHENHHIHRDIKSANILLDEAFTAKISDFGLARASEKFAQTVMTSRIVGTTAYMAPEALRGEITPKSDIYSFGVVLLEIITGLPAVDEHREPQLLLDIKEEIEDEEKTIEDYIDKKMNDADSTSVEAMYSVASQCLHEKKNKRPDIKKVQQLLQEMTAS

| SMILES | IC50 [nM] |
| --- | --- |
| CC(C)Nc1cc(-c2cnn3cc(Cl)cnc23)ncc1C(=O)NCCC(=O)N1CCOCC1 [Example 62, 6-(6-chloropyrazolo[1,5-a]pyrimidin-3-yl)-4-(isopropylamino)-N-(3-morpholino-3-oxopropyl)nicotinamide] | 47 |
| CC(C)Nc1cc(-c2cnn3cc(Cl)cnc23)ncc1C(=O)N[C@@H]1CC[C@@H](CO)OC1 [Example 77, 6-(6-chloropyrazolo[1,5-a]pyrimidin-3-yl)-N-((3R,6S)-6-(hydroxymethyl)tetrahydro-2H-pyran-3-yl)-4-(isopropylamino)nicotinamide] | 99 |
| C[C@H](Nc1cc(-c2cnn3cc(C#N)cnc23)ncc1C(=O)NC[C@@H](F)C(C)(C)O)C(C)(C)O [Example 100, 6-(6-cyanopyrazolo[1,5-a]pyrimidin-3-yl)-N—((R)-2-fluoro-3-hydroxy-3-methylbutyl)-4-(((S)-3-hydroxy-3-methylbutan-2-yl)amino)nicotinamide] | 94 |
| CNC(=O)[C@H]1CC[C@H](NC(=O)c2cnc(-c3cnn4cc(C#N)cnc34)cc2NCC(C)(C)F)CC1 [Example 102, 6-(6-cyanopyrazolo[1,5-a]pyrimidin-3-yl)-4-((2-fluoro-2-methylpropyl)amino)-N-((1r,4r)-4-(methylcarbamoyl)cyclohexyl)nicotinamide] | 80 |
| CC(C)(O)[C@H](F)CNC(=O)c1cnc(-c2cnn3cc(C#N)cnc23)cc1NC1CCCC1O (stereo partly drawn) [Example 103, 6-(6-cyanopyrazolo[1,5-a]pyrimidin-3-yl)-N—((R)-2-fluoro-3-hydroxy-3-methylbutyl)-4-((2-hydroxycyclopentyl)amino)nicotinamide] | 44 |
| CC(C)(O)[C@H](F)CNC(=O)c1cnc(C2=C3N=CC(C#N)C=C3N=N2)cc1N[C@@H]1CCCN(C(=O)CC(F)(F)F)C1 (stereo partly drawn) [Example 108, 6-(6-cyano-6H-pyrazolo[4,3-b]pyridin-3-yl)-N—((R)-2-fluoro-3-hydroxy-3-methylbutyl)-4-(((R)-1-(3,3,3-trifluoropropanoyl)piperidin-3-yl)amino)nicotinamide] | 67 |
| CC(Nc1cc(-c2cnn3cc(C#N)cnc23)ncc1C(=O)NC[C@@H](F)C(C)(C)O)c1cccnc1 (stereo partly drawn) [Example 113, 6-(6-cyanopyrazolo[1,5-a]pyrimidin-3-yl)-N—((R)-2-fluoro-3-hydroxy-3-methylbutyl)-4-((1-(pyridin-3-yl)ethyl)amino)nicotinamide] | 53 |
| CC(C)(O)[C@H](F)CNC(=O)c1cnc(-c2cnn3cc(C#N)cnc23)cc1NCC1(O)COC1 [Example 121, (R)-6-(6-cyanopyrazolo[1,5-a]pyrimidin-3-yl)-N-(2-fluoro-3-hydroxy-3-methylbutyl)-4-(((3-hydroxyoxetan-3-yl)methyl)amino)nicotinamide] | 52 |
| CC[C@H](O)CNc1cc(-c2cnn3cc(C#N)cnc23)ncc1C(=O)NC[C@@H](F)C(C)(C)O [Example 125, 6-(6-cyanopyrazolo[1,5-a]pyrimidin-3-yl)-N—((R)-2-fluoro-3-hydroxy-3-methylbutyl)-4-(((S)-2-hydroxybutyl)amino)nicotinamide] | 56 |
| CC(C)Nc1cc(-c2cnn3cccnc23)ncc1C(=O)NC[C@@H](F)C(C)(C)O [Example 127, (R)—N-(2-fluoro-3-hydroxy-3-methylbutyl)-4-(isopropylamino)-6-(pyrazolo[1,5-a]pyrimidin-3-yl)nicotinamide] | 81 |
| CC(C)Nc1cc(-c2cnn3cc(C4CC4)cnc23)ncc1C(=O)NC[C@@H](F)C(C)(C)O [Example 128, (R)-6-(6-cyclopropylpyrazolo[1,5-a]pyrimidin-3-yl)-N-(2-fluoro-3-hydroxy-3-methylbutyl)-4-(isopropylamino)nicotinamide] | 75 |
| CC(C)(O)[C@H]1CC[C@H](NC(=O)c2cnc(-c3cnc4cccnn34)cc2NC2COC2)CC1 [Example 133, N-((1r,4r)-4-(2-hydroxypropan-2-yl)cyclohexyl)-6-(imidazo[1,2-b]pyridazin-3-yl)-4-(oxetan-3-ylamino)nicotinamide] | 36 |

These reach a lower IC50. Values come first.

| IC50 [nM] | SMILES |
| --- | --- |
| 6 | CC(C)(O)[C@H](F)CNC(=O)c1cnc(-c2cnn3cc(Cl)cnc23)cc1N[C@H]1C[C@H](C(C)(C)O)C1 [Example 59, 6-(6-chloropyrazolo[1,5-a]pyrimidin-3-yl)-N—((R)-2-fluoro-3-hydroxy-3-methylbutyl)-4-(((1r,3R)-3-(2-hydroxypropan-2-yl)cyclobutyl)amino)nicotinamide] |
| 8 | CC(C)Nc1cc(-c2cnn3cc(Cl)cnc23)ncc1C(=O)NCC(=O)N1CCC2(CCO2)CC1 [Example 63, 6-(6-chloropyrazolo[1,5-a]pyrimidin-3-yl)-4-(isopropylamino)-N-(2-oxo-2-(1-oxa-7-azaspiro[3.5]nonan-7-yl)ethyl)nicotinamide] |
| 5 | CC(C)(O)[C@H](F)CNC(=O)c1cnc(-c2cnn3cc(Cl)cnc23)cc1NCC(F)(F)F [Example 64, (R)-6-(6-chloropyrazolo[1,5-a]pyrimidin-3-yl)-N-(2-fluoro-3-hydroxy-3-methylbutyl)-4-((2,2,2-trifluoroethyl)amino)nicotinamide] |
| 2 | CC(C)(C)Nc1cc(-c2cnn3cc(Cl)cnc23)ncc1C(=O)NC[C@@H](F)C(C)(C)O [Example 72, (R)-4-(tert-butylamino)-6-(6-chloropyrazolo[1,5-a]pyrimidin-3-yl)-N-(2-fluoro-3-hydroxy-3-methylbutyl) nicotinamide] |
| 26 | CC(C)Nc1cc(-c2cnn3cc(Cl)cnc23)ncc1C(=O)NC1CCN(S(=O)(=O)C(C)C)CC1 [Example 74, 6-(6-chloropyrazolo[1,5-a]pyrimidin-3-yl)-4-(isopropylamino)-N-(1-(isopropylsulfonyl)piperidin-4-yl)nicotinamide] |
| 29 | CC(C)Nc1cc(-c2cnn3cc(Cl)cnc23)ncc1C(=O)N[C@H]1CC[C@H](NC(=O)C(C)(C)O)CC1 [Example 78, 6-(6-chloropyrazolo[1,5-a]pyrimidin-3-yl)-N-((1r,4r)-4-(2-hydroxy-2-methylpropanamido)cyclohexyl)-4-(isopropylamino)nicotinamide] |
| 14 | COC1CCC(O)(CCNC(=O)c2cnc(-c3cnn4cc(Cl)cnc34)cc2NC2COC2)CC1 (centres unmarked) [Example 79, 6-(6-chloropyrazolo[1,5-a]pyrimidin-3-yl)-N-(2-(1-hydroxy-4-methoxycyclohexyl)ethyl)-4-(oxetan-3-ylamino)nicotinamide] |
| 26 | CC[C@H](O)CNc1cc(-c2cnn3cc(Cl)cnc23)ncc1C(=O)NC[C@@H](F)C(C)(C)O [Example 81, 6-(6-chloropyrazolo[1,5-a]pyrimidin-3-yl)-N—((R)-2-fluoro-3-hydroxy-3-methylbutyl)-4-(((S)-2-hydroxybutyl)amino)nicotinamide] |
| 2 | CC(C)(O)[C@H](F)CNC(=O)c1cnc(-c2cnn3cc(Cl)cnc23)cc1NC1CCC(F)C1 (stereo partly drawn) [Example 85, 6-(6-chloropyrazolo[1,5-a]pyrimidin-3-yl)-N—((R)-2-fluoro-3-hydroxy-3-methylbutyl)-4-((3-fluorocyclopentyl)amino)nicotinamide] |
| 4 | CC(C)(O)[C@H](F)CNC(=O)c1cnc(-c2cnn3cc(Cl)cnc23)cc1NC1CCC(F)C1 (stereo partly drawn) [Example 86, 6-(6-chloropyrazolo[1,5-a]pyrimidin-3-yl)-N—((R)-2-fluoro-3-hydroxy-3-methylbutyl)-4-((3-fluorocyclopentyl)amino)nicotinamide] |
| 34 | CNC(=O)[C@H]1CC[C@H](NC(=O)c2cnc(-c3cnn4cc(C#N)cnc34)cc2NC(C)C)CC1 [Example 88, 6-(6-cyanopyrazolo[1,5-a]pyrimidin-3-yl)-4-(isopropylamino)-N-((1r,4r)-4-(methylcarbamoyl)cyclohexyl)nicotinamide] |
| 9 | CC(C)(O)[C@H](F)CNC(=O)c1cnc(-c2cnn3cc(C#N)cnc23)cc1N[C@@H]1CCN(c2cncnc2)C1 [Example 119, 6-(6-cyanopyrazolo[1,5-a]pyrimidin-3-yl)-N—((R)-2-fluoro-3-hydroxy-3-methylbutyl)-4-(((R)-1-(pyrimidin-5-yl)pyrrolidin-3-yl)amino)nicotinamide] |
| 12 | CO[C@H]1CC[C@H](NC(=O)c2cnc(-c3cnn4cc(C#N)cnc34)cc2NC2COC2)CC1 [Example 124, 6-(6-cyanopyrazolo[1,5-a]pyrimidin-3-yl)-N-((1r,4r)-4-methoxycyclohexyl)-4-(oxetan-3-ylamino)nicotinamide] |
| 22 | CC(C)(O)[C@H](F)CNC(=O)c1cnc(-c2cnn3cccnc23)cc1NC1CCOCC1 [Example 126, (R)—N-(2-fluoro-3-hydroxy-3-methylbutyl)-6-(pyrazolo[1,5-a]pyrimidin-3-yl)-4-((tetrahydro-2H-pyran-4-yl)amino)nicotinamide] |
| 3 | CC(C)Nc1cc(-c2cnn3cc(F)c(N)nc23)ncc1C(=O)NC[C@@H](F)C(C)(C)O [Example 129, (R)-6-(5-amino-6-fluoropyrazolo[1,5-a]pyrimidin-3-yl)-N-(2-fluoro-3-hydroxy-3-methylbutyl)-4-(isopropylamino)nicotinamide] |
| 13 | CC(C)(O)[C@H](F)CNC(=O)c1cnc(-c2cnc3cccnn23)cc1NC1COC1 [Example 131, (R)—N-(2-fluoro-3-hydroxy-3-methylbutyl)-6-(imidazo[1,2-b]pyridazin-3-yl)-4-(oxetan-3-ylamino)nicotinamide] |
| 9 | CC(C)(O)[C@H](F)CNC(=O)c1cnc(-c2cnc3cccnn23)cc1NC1CCOCC1 [Example 132, (R)—N-(2-fluoro-3-hydroxy-3-methylbutyl)-6-(imidazo[1,2-b]pyridazin-3-yl)-4-((tetrahydro-2H-pyran-4-yl)amino)nicotinamide] |
